Target: PIKFYVE (Homo sapiens, UniProt Q9Y2I7)
Assay: PIKFYVE assay (luciferase ADP-Glo kinase assay, Promega)
Assay type: biochemical
Conditions: Table 3
Description: The activity of Compounds 1-20 was measured using a PIKFYVE assay (luciferase ADP-Glo kinase assay available from Promega Corp. of Madison, Wis.).
The activity of Compounds 39-90 was also measured using a PIKFYVE assay (luciferase ADP-Glo kinase assay available from Promega Corp. of Madison, Wis.).
The activity of Compounds 93-347 was also measured using a PIKFYVE assay (luciferase ADP-Glo kinase assay available from Promega Corp. of Madison, Wis.).

Chain of PIKFYVE (Q9Y2I7 whole entry): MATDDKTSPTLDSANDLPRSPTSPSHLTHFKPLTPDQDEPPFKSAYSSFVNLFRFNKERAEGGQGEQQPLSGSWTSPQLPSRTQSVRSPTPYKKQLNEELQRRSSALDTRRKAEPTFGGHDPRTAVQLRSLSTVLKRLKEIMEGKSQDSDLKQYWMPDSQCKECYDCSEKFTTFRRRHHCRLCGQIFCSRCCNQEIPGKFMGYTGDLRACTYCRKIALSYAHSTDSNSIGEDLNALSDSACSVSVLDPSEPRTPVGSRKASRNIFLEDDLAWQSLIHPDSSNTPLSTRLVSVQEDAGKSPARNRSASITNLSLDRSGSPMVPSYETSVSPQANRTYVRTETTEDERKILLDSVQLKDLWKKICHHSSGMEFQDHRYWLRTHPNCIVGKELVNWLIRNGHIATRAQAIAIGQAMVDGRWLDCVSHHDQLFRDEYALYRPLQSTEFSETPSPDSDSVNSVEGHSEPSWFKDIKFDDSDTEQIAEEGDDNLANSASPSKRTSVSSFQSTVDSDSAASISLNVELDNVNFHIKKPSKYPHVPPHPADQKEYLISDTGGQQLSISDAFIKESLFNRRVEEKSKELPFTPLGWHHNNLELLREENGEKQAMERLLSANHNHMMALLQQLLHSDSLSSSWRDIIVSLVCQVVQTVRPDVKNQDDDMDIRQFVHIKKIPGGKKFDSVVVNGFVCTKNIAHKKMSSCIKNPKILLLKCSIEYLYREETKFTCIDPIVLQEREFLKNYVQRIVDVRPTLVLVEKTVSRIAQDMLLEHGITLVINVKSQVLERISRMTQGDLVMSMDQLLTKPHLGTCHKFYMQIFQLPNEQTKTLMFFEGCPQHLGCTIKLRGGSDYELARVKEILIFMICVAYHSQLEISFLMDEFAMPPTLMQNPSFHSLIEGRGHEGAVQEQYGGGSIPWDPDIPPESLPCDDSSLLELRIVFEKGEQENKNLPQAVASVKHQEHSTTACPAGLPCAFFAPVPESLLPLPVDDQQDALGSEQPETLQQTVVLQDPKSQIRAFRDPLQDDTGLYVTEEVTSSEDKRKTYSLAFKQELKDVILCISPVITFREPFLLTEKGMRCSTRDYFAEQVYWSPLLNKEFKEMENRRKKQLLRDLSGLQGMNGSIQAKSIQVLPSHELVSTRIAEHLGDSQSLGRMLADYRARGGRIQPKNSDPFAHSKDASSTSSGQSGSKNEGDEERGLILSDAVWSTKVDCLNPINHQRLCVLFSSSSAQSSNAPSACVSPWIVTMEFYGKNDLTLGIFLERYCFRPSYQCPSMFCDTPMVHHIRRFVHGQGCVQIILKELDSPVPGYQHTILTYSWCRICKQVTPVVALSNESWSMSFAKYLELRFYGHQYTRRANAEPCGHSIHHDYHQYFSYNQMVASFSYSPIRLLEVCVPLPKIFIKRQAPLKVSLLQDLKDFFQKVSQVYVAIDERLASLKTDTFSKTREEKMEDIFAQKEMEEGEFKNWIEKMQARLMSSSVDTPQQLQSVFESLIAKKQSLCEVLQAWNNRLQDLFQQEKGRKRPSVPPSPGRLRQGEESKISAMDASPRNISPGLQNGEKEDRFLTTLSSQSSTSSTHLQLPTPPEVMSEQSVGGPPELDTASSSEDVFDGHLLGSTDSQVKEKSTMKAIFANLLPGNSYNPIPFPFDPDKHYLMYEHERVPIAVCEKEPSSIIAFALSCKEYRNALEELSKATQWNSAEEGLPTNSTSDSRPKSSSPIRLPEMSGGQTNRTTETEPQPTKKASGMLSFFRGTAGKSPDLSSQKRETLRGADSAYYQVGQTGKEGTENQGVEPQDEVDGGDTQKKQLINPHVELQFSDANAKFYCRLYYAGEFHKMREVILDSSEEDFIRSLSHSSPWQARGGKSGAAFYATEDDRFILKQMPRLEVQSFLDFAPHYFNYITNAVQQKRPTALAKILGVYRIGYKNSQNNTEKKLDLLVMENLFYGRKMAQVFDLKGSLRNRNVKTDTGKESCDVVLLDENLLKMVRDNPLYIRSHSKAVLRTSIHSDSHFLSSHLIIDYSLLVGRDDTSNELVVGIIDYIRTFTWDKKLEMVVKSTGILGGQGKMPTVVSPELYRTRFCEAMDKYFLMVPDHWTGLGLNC

Row | SMILES | IC50
1 | Cc1c2ccc(CO)cc2nn1-c1cc(N2CCOCC2)nc(OCCc2cnn(C)c2)n1 [Compound 255, (3-methyl-2-(2-(2-(1-methyl-1H-pyrazol-4-yl)ethoxy)-6-morpholinopyrimidin-4-yl)-2H-indazol-6-yl)methanol] | 10 to 100 nM
2 | CO[C@H](CO)c1nc(N2CCOCC2)cc(-n2ccc(-c3cccc(C)c3C)n2)n1 [Compound 264, (S)-2-(4-(3-(2,3-dimethylphenyl)-1H-pyrazol-1-yl)-6-morpholinopyrimidin-2-yl)-2-methoxyethan-1-ol] | 100 to 5000 nM
3 | CO[C@@H](CO)c1nc(N2CCOCC2)cc(-n2ccc(-c3cccc(C)c3C)n2)n1 [Compound 265, (R)-2-(4-(3-(2,3-dimethylphenyl)-1H-pyrazol-1-yl)-6-morpholinopyrimidin-2-yl)-2-methoxyethan-1-ol] | 100 to 5000 nM
4 | CO[C@@H](CO)c1nc(N2CCOCC2)cc(-n2ccc(-c3cccc4c3OCO4)n2)n1 [Compound 267, (R)-2-(4-(3-(benzo[d][1,3]dioxol-4-yl)-1H-pyrazol-1-yl)-6-morpholinopyrimidin-2-yl)-2-methoxyethan-1-ol] | 10 to 100 nM
5 | CO[C@H](CO)c1nc(N2CCOCC2)cc(-n2ccc(-c3cccc4c3COC4)n2)n1 [Compound 270, (S)-2-(4-(3-(1,3-dihydroisobenzofuran-4-yl)-1H-pyrazol-1-yl)-6-morpholinopyrimidin-2-yl)-2-methoxyethan-1-ol] | 100 to 5000 nM
6 | CO[C@@H](CO)c1nc(N2CCOCC2)cc(-n2ccc(-c3cccc4c3COC4)n2)n1 [Compound 271, (R)-2-(4-(3-(1,3-dihydroisobenzofuran-4-yl)-1H-pyrazol-1-yl)-6-morpholinopyrimidin-2-yl)-2-methoxyethan-1-ol] | 100 to 5000 nM
7 | CO[C@@H](CO)c1nc(N2CCOCC2)cc(-n2nc(-c3cnc4ccccn34)cc2C)n1 [Compound 281, (R)-2-(4-(3-(imidazo[1,2-a]pyridin-3-yl)-5-methyl-1H-pyrazol-1-yl)-6-morpholinopyrimidin-2-yl)-2-methoxyethan-1-ol] | 100 to 5000 nM
8 | CO[C@@H](CO)c1nc(N2CCOCC2)cc(-n2ccc(-c3cnc4ccccn34)n2)n1 [Compound 283, (R)-2-(4-(3-(imidazo[1,2-a]pyridin-3-yl)-1H-pyrazol-1-yl)-6-morpholinopyrimidin-2-yl)-2-methoxyethan-1-ol] | 100 to 5000 nM
9 | CO[C@@H](CO)c1nc(N2CCOCC2)cc(-n2nc(-c3c[nH]c4ncccc34)cc2C)n1 [Compound 285, (R)-2-methoxy-2-(4-(5-methyl-3-(1H-pyrrolo[2,3-b]pyridin-3-yl)-1H-pyrazol-1-yl)-6-morpholinopyrimidin-2-yl)ethan-1-ol] | 10 to 100 nM
10 | CO[C@@H](CO)c1nc(N2CCOCC2)cc(-n2nc(-c3c[nH]c4ccncc34)cc2C)n1 [Compound 289, (R)-2-methoxy-2-(4-(5-methyl-3-(1H-pyrrolo[3,2-c]pyridin-3-yl)-1H-pyrazol-1-yl)-6-morpholinopyrimidin-2-yl)ethan-1-ol] | 100 to 5000 nM
11 | CO[C@H](CO)c1nc(N2CCOCC2)cc(-n2nc(-c3c[nH]c4cccnc34)cc2C)n1 [Compound 290, (S)-2-methoxy-2-(4-(5-methyl-3-(1H-pyrrolo[3,2-b]pyridin-3-yl)-1H-pyrazol-1-yl)-6-morpholinopyrimidin-2-yl)ethan-1-ol] | 100 to 5000 nM
12 | CO[C@@H](CO)c1nc(N2CCOCC2)cc(-n2nc(-c3c[nH]c4cccnc34)cc2C)n1 [Compound 291, (R)-2-methoxy-2-(4-(5-methyl-3-(1H-pyrrolo[3,2-b]pyridin-3-yl)-1H-pyrazol-1-yl)-6-morpholinopyrimidin-2-yl)ethan-1-ol] | 100 to 5000 nM
13 | CCc1cc(-c2ccccc2)nn1-c1cc(N2CCOCC2)nc([C@@H](CO)OC)n1 [Compound 294, (S)-2-(4-(5-ethyl-3-phenyl-1H-pyrazol-1-yl)-6-morpholinopyrimidin-2-yl)-2-methoxyethan-1-ol] | 10 to 100 nM
14 | CCc1cc(-c2ccccc2)nn1-c1cc(N2CCOCC2)nc([C@H](CO)OC)n1 [Compound 295, (R)-2-(4-(5-ethyl-3-phenyl-1H-pyrazol-1-yl)-6-morpholinopyrimidin-2-yl)-2-methoxyethan-1-ol] | 10 to 100 nM
15 | Cn1cc(CCOc2nc(N3CCOCC3)cc(-n3ccc(C4=CC(C)(C)CC=C4)n3)n2)cn1 [Compound 296, 4-(6-(3-(3,3-dimethylcyclohexa-1,5-dien-1-yl)-1H-pyrazol-1-yl)-2-(2-(1-methyl-1H-pyrazol-4-yl)ethoxy)pyrimidin-4-yl)morpholine] | 100 to 5000 nM
16 | Cc1cccc(-c2ccn(-c3cc(N4CCOCC4)c4c(ccn4C)n3)n2)c1 [Compound 333, 4-(1-methyl-5-(3-(m-tolyl)-1H-pyrazol-1-yl)-1H-pyrrolo[3,2-b]pyridin-7-yl)morpholine] | 100 to 5000 nM

Now from value to compound:

Row | IC50 | SMILES
17 | 100 to 5000 nM | CO[C@H](CO)c1nc(N2CCOCC2)cc(-n2ccc(-c3cccc4c3OCO4)n2)n1 [Compound 266, (S)-2-(4-(3-(benzo[d][1,3]dioxol-4-yl)-1H-pyrazol-1-yl)-6-morpholinopyrimidin-2-yl)-2-methoxyethan-1-ol]
18 | 100 to 5000 nM | CO[C@H](CO)c1nc(N2CCOCC2)cc(-n2nc(-c3cnc4ccccn34)cc2C)n1 [Compound 280, (S)-2-(4-(3-(imidazo[1,2-a]pyridin-3-yl)-5-methyl-1H-pyrazol-1-yl)-6-morpholinopyrimidin-2-yl)-2-methoxyethan-1-ol]
19 | 100 to 5000 nM | CO[C@H](CO)c1nc(N2CCOCC2)cc(-n2ccc(-c3cnc4ccccn34)n2)n1 [Compound 282, (S)-2-(4-(3-(imidazo[1,2-a]pyridin-3-yl)-1H-pyrazol-1-yl)-6-morpholinopyrimidin-2-yl)-2-methoxyethan-1-ol]
20 | 10 to 100 nM | CO[C@H](CO)c1nc(N2CCOCC2)cc(-n2nc(-c3c[nH]c4ncccc34)cc2C)n1 [Compound 284, (S)-2-methoxy-2-(4-(5-methyl-3-(1H-pyrrolo[2,3-b]pyridin-3-yl)-1H-pyrazol-1-yl)-6-morpholinopyrimidin-2-yl)ethan-1-ol]
21 | 100 to 5000 nM | CO[C@H](CO)c1nc(N2CCOCC2)cc(-n2nc(-c3c[nH]c4cnccc34)cc2C)n1 [Compound 286, (S)-2-methoxy-2-(4-(5-methyl-3-(1H-pyrrolo[2,3-c]pyridin-3-yl)-1H-pyrazol-1-yl)-6-morpholinopyrimidin-2-yl)ethan-1-ol]
22 | 100 to 5000 nM | CO[C@@H](CO)c1nc(N2CCOCC2)cc(-n2nc(-c3c[nH]c4cnccc34)cc2C)n1 [Compound 287, (R)-2-methoxy-2-(4-(5-methyl-3-(1H-pyrrolo[2,3-c]pyridin-3-yl)-1H-pyrazol-1-yl)-6-morpholinopyrimidin-2-yl)ethan-1-ol]
23 | 100 to 5000 nM | CO[C@H](CO)c1nc(N2CCOCC2)cc(-n2nc(-c3c[nH]c4ccncc34)cc2C)n1 [Compound 288, (S)-2-methoxy-2-(4-(5-methyl-3-(1H-pyrrolo[3,2-c]pyridin-3-yl)-1H-pyrazol-1-yl)-6-morpholinopyrimidin-2-yl)ethan-1-ol]

Source: patent US20230135152A1 (ACURASTEM INCORPORATED, priority 2020, published 2023)
